Measured values taken from patent US5948635A, “Totally Synthetic Affinity Reagents” (University of North Carolina at Chapel Hill, priority 1995, dated 1999).
No end group written: not given here.

Columns and labels:
[1] = Immobilized metal affinity chromatography of phage on Zn(II)-IDA; assay type: binding; conditions: for relative retention by Zn(II)-IDA: comparison of four clones
Experimental: The TSAR-9 random peptide library was subjected to IMAC chromatography as follows: 0.5 ml bed volume iminodiacetic acid (IDA) Sepharose (Sigma Chemical Co.) columns were washed with 1 ml of sterile doubly distilled (dd) H2 O, charged with 5 ml of 10 mM ZnCl2 in dd H2 O followed by 3 ml sterile dd H2 O and equilibrated with 10 ml 10 mM Tris-HCl, 150 mM NaCl, 0.1% Tween-20, pH 7.5 (T10NT) to prepare the Zn(II) IDA column. 10^12 pfu of the TSAR-9 random peptide library were passed over the Zn(II) IDA column and washed with 10 ml T10NT. Bound phage were eluted with 500 μl 200 mM glycine-HCl, pH 2.2 and the pH was then neutralized with 500 μl 1 M phosphate buffer, pH 7.5+1 ml T10NT. Eluted phage were subjected to two further rounds of selection and the resulting population was amplified by overnight growth on a lawn of E. coli DH5αF'.
To quantitate the relative binding of the Zn(II)-IDA selected TSARs, each TSAR encoding phage was chromatographed over Zn(II)-IDA. Three fractions were collected and titered for phage: wash (unbound), elution (bound, eluted), and column (bound, not eluted).
The binding specificity of a number of the identified Zn-binding proteins was evaluated by chromatography using IDA columns charged with Zn^+2, Cu^+2 or Ni^+2. A particular Zn-binding phage (10×10^11 pfu) in 1 ml of 100 mM Tris-HCl, 150 mM NaCl, 0.1% Tween-20, pH 7.5 (T100NT) was loaded onto a Zn(II)-, Cu(II)- or Ni(II)-IDA column and the columns were washed as described above, except that T100NT was substituted for T10NT. The columns were eluted with acid; Zn^+2 (2 ml 100 mM ZnCl2 in T1OONT, pH 7.5), or imidazole (2 ml 100 mM imidazole in T100NT, pH 7.5). Three fractions were collected and titered for the presence of phage: the wash fraction (.box-solid.), the elution fraction and the metal II-IDA column matrix resuspended in T10NT (.quadrature.).Results obtained are shown in FIG. 16 A and B.

[2] = tested on: 7E11-C5 monoclonal antibody; assay: ELISA of antibody binding to immobilized peptide; set-up: species or system mouse; conditions: peptide adsorbed on polyvinylchloride plates, 0.5-500 μg/ml; FIG. 14, 15
Experimental: (§1) Peptides, diluted in 10% PBS (Dulbecco's, pH 7.2, Hazelton), were immobilized by adsorption on polyvinylchloride plates. SEQ ID NO 31 (amide form) was diluted in 10% PBS at 0.5, 5, 50 or 500 μg/ml. Control peptide 2 in 10% PBS at the same range of concentrations served as the control. A 50 μl volume of the test or control peptide solution was added to each well and incubated overnight at 4° C. The peptide solution was removed and 10% BSA-PBS was added as blocking solution. […] Bound 7E11-C5 monoclonal antibody was detected with anti-mouse IgG1 -HRP as described above herein.

B139 monoclonal antibody [3] = assay: ELISA of control antibody binding to immobilized peptide; set-up: species or system murine; conditions: peptide coated at 5 μg/ml; FIG. 15
Experimental: as §1

[4] = tested on: 7E11-C5 monoclonal antibody; assay: Competitive binding ELISA: inhibition of 7E11-C5 binding to LNCaP cell lysate antigen; set-up: species or system mouse; conditions: for competitive inhibition of 7E11-C5 binding to LNCaP extract by peptide: peptides, amide form, FIG. 13; for inhibition of 7E11-C5 binding to its antigen by phage: phage 6.3×10^7 to 6.3×10^11 pfu, 7E11-C5 30 ng/ml
Experimental: Each well of a polyvinylchloride 96-well ELISA plate (Cooke, Alexandria, Va.) was coated with an LNCAP human prostate carcinoma cell (ATCC # CRL 1740) lysate. Lysates were prepared by harvesting confluent LNCaP cell cultures, resuspending cells in 4 volumes of 1 mM MgCl2 for 5 minutes, mixing with 2 μg of DNase (Boehringer Mannheim, Indianapolis, Ind.) and homogenizing using 40 strokes in a Dounce homogenizer (Wheaton, Millville, N.J.). LNCaP lysate (50 μl per well of a 1:50 dilution in 0.1×PBS [Dulbecco's pH 7.2, JRH, Denver, Pa.]) was air dried overnight at 37° C. onto wells of the ELISA plate. ELISA plates were blocked with 150 μl/well of 1% BSA (Pentex Fraction V, Miles, Kankakee, Ill.) in PBS for 60 minutes at room temperature.
The blank control consisted of blocking solution in the absence of primary antibody. 7E11-C5 monoclonal antibody pre-incubated with buffer without any phage (MAb) was the positive control. The expression vector m663 phage was also employed as a non-specific phage control.
Plates were washed 4 times with 0.05% Tween-20 in PBS. Bound monoclonal antibody 7E11-C5 was detected by: (1) incubating with 50 μl/well of anti-mouse IgG1 -HRP (Fisher Biotech, Orangeburg, N.Y.) diluted to 0.4 ng/ml in 1% BSA-PBS, for 60 minutes at room temperature; (2) washing plates 6 times with 0.05% Tween-20 in PBS; and (3) adding 100 μl/well ABTS substrate [200 μl ABTS, (Boehringer Mannheim), 10 ml citrate buffer (pH 4), 10 μl H2 O2 ]. Optical density of the reactions products was determined by endpoint analysis on a Multiscan plate reader (Molecular Devices, Menlo Park, Calif.). The competitive inhibition (%) was determined by comparing the reactivity of the positive control to the test samples.
(§2) The TSAR-based peptide (SEQ ID NO 31) concentration ranged from 1.75 to 1130 nM. […] Two additional control peptides (amide form) having the following amino acid sequences: RGD-21: NH2 -[…]-CONH2 (SEQ ID NO 32) and CYT-379: NH2 -[…]-CONH2 (SEQ ID NO 33) were also evaluated. Herein these control peptides are referred to as Control Peptide 1 and Control Peptide 2. […] The B139 monoclonal antibody, which is a murine IgG1 monoclonal antibody that reacts with all human epithelial cells, recognizes a different antigen in the LNCaP extract from that recognized by the 7E11-C5 antibody. The control B139 monoclonal antibody was used at a concentration of 9 ng/ml. The results obtained are illustrated in FIG. 13.

B139 monoclonal antibody [5] = assay: Competitive binding ELISA: inhibition of B139 binding to LNCaP extract; set-up: species or system murine; conditions: B139 9 ng/ml; FIG. 13
Experimental: as §2

7E11-C5 antibody = assay: Relative affinity: phage binding to microtiter plates coated with differing amounts of 7E11-C5; set-up: species or system mouse; conditions: plates coated with 0, 4, 20, 100 and 500 ng antibody
Experimental: The relative affinity of the different 7E11-C5 binding TSARs for the 7E11-C5 antibody was compared. Microtiter plates were coated with differing amounts of the antibody (i.e., 0, 4, 20, 100 and 500 ng) prior to phage binding. Our prediction was that the TSAR with the highest affinity for the antibody would still bind effectively to wells coated with lower amounts of antibody. […] These TSARs all have Y as the second amino acid in the motif. The next class of TSARs bound ~2-fold less well; as represented by 12-2, which also had Y as the second amino acid. Three TSARs bound 5-10 fold less well than the best binders as represented by 9-2, 9-4, and 12-4; their inserts had W or H at the second position of the motif. Finally, TSAR 12-3 bound 50-fold less well than the best binders; this TSAR has I and R in the second and sixth positions, respectively. Thus, it seems that the 7E11-C5 epitope can be mimicked by a linear peptide sequence that has both variant and invariant residues.

streptavidin = molecular target: T1, streptavidin (Streptomyces avidinii, UniProt P22629); assay: Inhibition of TSAR binding to streptavidin by biotin and biotin analogs; conditions: for IC50: representative TSARs SA-1, -2, -4 and -14
T1 construct: purchased Advanced Magnetics, Cambridge, Mass
T1 sequence (P22629 25-183): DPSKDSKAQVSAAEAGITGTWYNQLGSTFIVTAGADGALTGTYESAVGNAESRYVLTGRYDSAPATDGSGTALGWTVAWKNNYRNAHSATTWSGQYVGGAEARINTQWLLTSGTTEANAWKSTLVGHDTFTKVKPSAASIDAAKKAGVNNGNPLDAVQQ
Experimental: Specificity of the binding of the identified proteins for streptavidin was investigated by evaluating inhibition of binding by biotin and by a number of biotin analogs, including diaminobiotin, immunobiotin, lipoic acid and imidazalidone. Four representative TSARs, pictured in Table 9, were evaluated, i.e., SA-1,-2, -4 and -14 (SEQ ID NOs. 116, 114, 104 and 117).

C46 monoclonal antibody = assay: Competition of CEA with phage for binding to immobilized C46 antibody; set-up: species or system mouse; conditions: CEA 1, 25, 250, 2500 ng; FIG. 17
Experimental: Microtiter dish wells were coated with 50 μl of the C46 monoclonal antibody (5 μg/ml in 100 mM NaHCO3, pH 8.5) for 2 hr at 4° C. To the wells, 50 μl of BSA (1 mg/ml in 100 mM NaHCO3, pH 8.5) were added and the wells incubated for 30 min. at room temperature. The wells were washed (5×) with PBS-0.05% Tween 20.
To each well was added either 25 μl of C46-binding phage (C46.9-1 or C46.9-2) and increasing amounts of highly purified CEA (1, 25, 250, 2500 ng) (Scripps Clinic). After 2 hr incubation at room temperature, the wells were washed (10×) with PBS-0.05% Tween 20. 25 μl of 200 mM glycine-HCl (pH 2.2) were then added to the wells and they were incubated at room temperature for 5 min. The liquid was then transferred to new microtiter dish wells that contained 50 μl of 1M NaHPO4. The contents of the well were then serially diluted and aliquots were plated to count plaques.

## HSYHDVATTKPGSHCMHNPGHPPPPNCHMAKAHSHNRI [Zn1A12]
[1]
  relative retention by Zn(II)-IDA: exhibit the least retention

## PSYYRGDAGPSYYRGDAG-NH2 [Control Peptide 1]
[2]
  binding of 7E11-C5 to immobilized peptide: did not bind to either of the tested antibodies
B139 monoclonal antibody [3]
  binding of B139 to immobilized peptide: did not bind to either of the tested antibodies
[4]
  competitive inhibition of 7E11-C5 binding to LNCaP extract by peptide: did not effectively compete
B139 monoclonal antibody [5]
  competitive inhibition of B139 binding to LNCaP extract by peptide: neither SEQ ID NO 31 (amide form) nor either of Control Peptide 1 and Control Peptide 2 competitively inhibited the binding

## RDSAVENPSVGGEIP MYRYLH QR [7E11.12-2]
7E11-C5 antibody
  relative binding to 7E11-C5 (fold less well than the best binders): ~ 2 fold

## ATEQHYWTQYHKPYHPSVPGFHVKSVTETTDHWESRNG [Zn1B8]
[1]
  relative retention by Zn(II)-IDA: exhibit the least retention
  retention on Zn(II)-IDA, of recovered phage: 85%

## NH2 -SYGRGDVRGDFKCTCCA-CONH2 (H-SYGRGDVRGDFKCTCCA-NH2; cysteine pairing not given here) [Control Peptide 2]
[2]
  binding of 7E11-C5 to immobilized peptide: did not bind to either of the tested antibodies
B139 monoclonal antibody [3]
  binding of B139 to immobilized peptide: did not bind to either of the tested antibodies
[4]
  competitive inhibition of 7E11-C5 binding to LNCaP extract by peptide: did not effectively compete
B139 monoclonal antibody [5]
  competitive inhibition of B139 binding to LNCaP extract by peptide: neither SEQ ID NO 31 (amide form) nor either of Control Peptide 1 and Control Peptide 2 competitively inhibited the binding

## SVQFKSISSRSMDDVVKDPGPKPA MWKMLH SKNPFTLS [7E11.9-2]
7E11-C5 antibody
  relative binding to 7E11-C5 (fold less well than the best binders): 5-10 fold

## imidazalidone
streptavidin
  IC50: ~5000 µM

## PVQKEYGFFMSGAS MIRLLR ETP [7E11.12-3]
7E11-C5 antibody
  relative binding to 7E11-C5 (fold less well than the best binders): 50 fold

## CNFRGQCVSAPQTSNSKSPGWDTTWHDFRKEQFYNLTS [C46-9.2]
C46 monoclonal antibody
  competition with CEA for binding to the C46 antibody: competitive binding

## N[C@@H]1[C@H](CCCCC(=O)O)SC[C@@H]1N [diaminobiotin]
streptavidin
  IC50: ~0.2 µM

## IDMPETAST MYNMLH RNEPGGRKLSPPANDMPPALLKR [7E11.9-5]
[4]
  inhibition of 7E11-C5 binding to its antigen by phage: inhibited the binding of 7E11-C5 monoclonal antibody to its antigen, in a dose dependent fashion
7E11-C5 antibody
  relative binding to 7E11-C5 (fold less well than the best binders): bound the best

## PDYDLMSSTCRFYGCSKMPGGVAVNGLFAVQGHSKYSS [SA-1]
streptavidin
  inhibition of TSAR binding to streptavidin by biotin and all the biotin analogs tested: completely inhibited

## SSCAYARYVPLLLLLYANPG MYSRLH SPAVRPLTQSSA [7E11.9-1]
[4]
  inhibition of 7E11-C5 binding to its antigen by phage: also inhibited 7E11-C5 monoclonal antibody binding
7E11-C5 antibody
  relative binding to 7E11-C5 (fold less well than the best binders): bound the best

## N=C1N[C@H]2[C@H](CS[C@H]2CCCCC(=O)O)N1 [immunobiotin]
streptavidin
  IC50: ~3 µM

## RLGNVWRVEGGG MYQQLH HNFPX^2 [7E11.12-1]
[4]
  inhibition of 7E11-C5 binding to its antigen by phage: inhibited the binding of 7E11-C5 monoclonal antibody to its antigen, in a dose dependent fashion
7E11-C5 antibody
  relative binding to 7E11-C5 (fold less well than the best binders): bound the best

## QKGGPGLLLYGGDS MWITLH EPG [7E11.12-4]
7E11-C5 antibody
  relative binding to 7E11-C5 (fold less well than the best binders): 5-10 fold

## FDHTYSGPVCVKNGGLVSPGVLS MYNRLH SDGGPSLAS [7E11.9-3]
7E11-C5 antibody
  relative binding to 7E11-C5 (fold less well than the best binders): bound the best

## IAHRVVAYNSLDSNPIWLPGEESSSVFGDY HPMF RAPV [SA-4]
streptavidin
  inhibition of TSAR binding to streptavidin by biotin and all the biotin analogs tested: completely inhibited

## O=C(O)CCCC[C@@H]1CCSS1 (racemic) [lipoic acid]
streptavidin
  IC50: ~1050 µM

## NAVRVDSGYPPNPNTFHLPGCIDVLSSGCRLFSAHSEY [C46-9.1]
C46 monoclonal antibody
  competition with CEA for binding to the C46 antibody: competitive binding

## YDHHSYNGDMHYPGWPPLPGPHHFAPIDVTTHSHTQPD [Zn1A1]
[1]
  retention on Zn(II)-IDA, of recovered phage: 15%

## TVAT MHDTLH SAPGSGNLPGSYDIKPIFKASGALHSTX^2 [7E11.9-4]
7E11-C5 antibody
  relative binding to 7E11-C5 (fold less well than the best binders): 5-10 fold
